Data published in US20050170966A1, “Surfactants and surfactant compositions” (priority 2002, published 2005).

Tested on: mixtures of weeds: Cockspur (Echinochloa crus-galli), Fat-hen (Chenopodium album), Smartweed (Polygonum persicaria)
Assay: Field trial: adjuvant effect on Glyphosate herbicidal activity on mixed weed plots
Format: in vivo
Conditions: glyphosate 1080 g(a.e.).ha^-1, adjuvant 540 g.ha^-1 (2:1)
Procedure: This Example tests the effect of adjuvants on Glyphosate herbicidal activity under field conditions. The herbicide was applied to test plots of weeds at a rate of 1080 g(a.e.).ha^−1 (350 l.ha^−1 of spray containing 3.086 g.l^−1 a.e.) with a weight ratio of active to adjuvant of 2:1=540 g(adjuvant).ha^−1. Spray plots were treated with the herbicide formulations, one of each of four adjuvants of the invention (SE1, SE2, SE3, and SE4) a fatty amine ethoxylate (FAE1) for comparison, or left untreated as controls (no weed control). The spray plots were in a completely randomised block design with 3 replicates of 3×5 m plots. the sprayed plots were sprayed using a compressed-air AZO sprayer at a pressure of 2.5 bar, equipped with Teejet XR80015VS nozzles. During this trial, it rained for about 15 minutes about 2 hours after spraying, giving a good indication of the rainfastness off the formulations tested.
The test plots used mixtures of the following weeds at the 2 to 4 leaf stage:
The results of spraying were evaluated by visual comparison with untreated control blocks 12, 20 and 35 days after treatment (DAT), assessing chlorosis (chlor) and growth inhibition (inhib) as percentages with 0=no effect and 100=complete kill as compared with the untreated controls.

[1] = 12 DAT, 0=no effect, 100=complete kill

Molecule	inhib (%) growth inhibition (12 DAT) [%]	chlor (%) chlorosis [1] [%]	chlor (%) chlorosis (20 DAT) [%]	inhib (%) growth inhibition (20 DAT) [%]	chlor (%) chlorosis (35 DAT) [%]	inhib (%) growth inhibition (35 DAT) [%]
1-[Bis-(2-hydroxyethyl)-amino]-2-hydroxypropane-3-(stearyl 25-ethoxylate) [SE4]	62	63	75	75	65	68
1-[Diethylamino]-2-hydroxypropane-3-(Alc1 15-ethoxylate) [SE1]	67	62	77	78	78	78
CCCCCCCCCCCCCCCCCCOCCOCCOCCOCCOCCOCCOCCOCCOCCOCCOCCOCCOCCOCCOCCOCCOCCOCCOCCOCCOCCOCCOCCOCCOCCOCC(O)CN(CC)CC (stereo not drawn) [SE3, 1-diethylamino-2-hydroxypropane-3-(stearyl 25-ethoxylate)]	63	62	72	72	68	75
